PMC6261997, “Synergistic enzymatic and bioorthogonal reactions for selective prodrug activation in living systems” (Nature Communications, 2018)

Legend:
Saos-2 cells = assay: MTT cell viability / cytotoxicity assay, Saos-2 cells; assay type: cell-based; settings: MTT assay and clonogenic assay
Experimental: (§1) Cells were plated in flat-bottom 96-well plates at a density of 3 × 10^3 cells per well. After 12 h of cell attachment, the cell culture medium was replaced with 100 μL of pre-warmed media containing the compounds at different concentrations. After 24–72 h of incubation, cell proliferation was assessed by the MTT assay. A fresh mixture of 10 μL of thiazolyl blue tetrazolium bromide (MTT) and 90 μL of medium were freshly added to each well. After incubation for 4 h, the medium was gently removed. The formazan crystals that formed were dissolved in 110 μL of DMSO, and the absorbance was subsequently measured with a plate reader (Perkin Elmer) at 490 nm. EC50 values were calculated using Origin software. To measure the cytotoxicity of 2, HeLa cells, HUVECs, Saos-2 cells and CCC-HEH-2 cells were incubated with 100 μL of 1–500 μM 2 for 24 h, and then, cell viability was determined. To measure the cytotoxicity of TCO-Dox or Dox, HeLa cells, HUVECs, Saos-2 cells or CCC-HEH-2 cells were incubated with 200 μL of 0.001–10 μM TCO-Dox or Dox for 72 h, and the cell viability was determined. To determine the cytotoxicity of activated Dox, HeLa cells, HUVECs, Saos-2 cells or CCC-HEH-2 cells were pre-incubated with 100 μL of 500 μM 2 for 6 h, and then, 2 was removed and 200 μL of 0.0001–10 μM TCO-Dox was added for 72 h of incubation, and cell viability was determined. […]
Prodrug activation efficacy in cells: Cells were plated on flat bottom 96-well plates at a density of 3x10^3 cells per well. After 12 h attachment, cells were incubated with 100 µL 500 µM of 2 for 6 h before removing 2 and the addition of 200 µL 0.0001-10 µM of TCO-Dox. Cells were further incubated for 72 h before measuring the viability by the MTT […]
Clonogenic assay of cells in vitro: Clonogenic assay was performed according to the standard protocol.6 2×10^5 attached cells were treated with 500 µM of 2 for 6 h in culture dishes. Cells were then detached, re-suspended in cultural medium and counted accurately. The cell suspension was diluted into the desired seeding concentration and cells were seeded in 6-well plates at a density of 200 cells per well for CCC-HEH-2 and 400 cells per well for HeLa, Saos-2 and HUVECs. After incubation for 10 days, the cultural medium was removed and cells were rinsed carefully with PBS. 2 mL of a mixture of 6.0% (vol/vol) glutaraldehyde and 0.5% (wt/vol) crystal violet was added and kept for 30 min.
The glutaraldehyde crystal violet mixture was removed carefully. The colonies were rinsed with water and dried in normal air at room temperature. The number of the colonies was counted using a stereomicroscope.
When untreated cells are plated as a single-cell suspension at low densities, they will grow to colonies. The plating efficiency (PE) is the ratio of the number of colonies to the […]
(Supplementary Equation 1)
The number of colonies that arise after treatment of cells, expressed in terms of PE, is called the surviving fraction (SF): […]

[1] = MTT cell viability / cytotoxicity assay, HeLa cells; assay type: cell-based; settings: human; 500 μM 2, 24 h, MTT
Experimental: as §1, with “[…],” for “Saos-2 cells or CCC-HEH-2 cells were pre-incubated with 100 μL of 500 μM 2 for 6 h,”
Prodrug activation efficacy in cells: Cells were plated on flat bottom 96-well plates at a
density of 3x10^3 cells per well. After 12 h attachment, cells were incubated with 100 µL
500 µM of 2 for 6 h before removing 2 and the addition of 200 µL 0.0001-10 µM of […]

In the case of `Cc1nnc(-c2ccc(CC(=O)NCCCCC(NC(=O)Cc3ccc4ccccc4c3)C(=O)NC(Cc3ccc(OP(=O)(O)O)cc3)C(=O)NC(Cc3ccccc3)C(=O)O)cc2)nn1` (centres unmarked) [compound 2, NapK(Tz)YpF], the “cytotoxicity of 2 against Saos-2 cells” value (Saos-2 cells) is reported as “toxic to Saos-2 cells to some extent” and the viability at 24 h, 500 μM [1] is reported as over 85%.
